What was measured:
[1] = system: Respiratory Syncytial Virus; assay: microbe, parasite or virus in culture; assay type: cell-based; conditions: human respiratory syncytial virus
How it was run: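 HeLa cells infected with ~100 TCID50 RSV in Eagle's Basal Medium with 5% FCS, five-fold compound dilutions, 37° C, 5% CO2 for 7 days. Viability by MTT (A540 minus A690); EC50 for protection against cytopathic effect and CC50 from mock-infected wells, SI = CC50/EC50.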

[2] = 168 h, RSV-infected HeLa cells, MTT readout seven days after infection, −log of EC50 in molar units
[3] = pEC50 (−log of EC50 when expressed in molar units), protection against RSV cytopathology

Compound	EC50 [1, 2]	melting point	EC50 [1, 3]
Cc1cc(C)cc(NCc2ccc3nc(NCCCN4CCOCC4)n(Cc4nc(C)ccc4O)c3c2)c1 [Compound 23, 2-[6-[(3,5-dimethyl-phenylamino)-methyl]-2-(3-morpholin-4-yl-propylamino)-benzoimidazol-1-ylmethyl]-6-methyl-pyridin-3-ol]	1 nM	199 °C	
Cc1ccc(O)c(Cn2c(NCCCN3CCOCC3)nc3ccc(CNc4c(C)cc(CCC#N)cc4C)cc32)n1 [Compound 49, 3-(4-{[3-(3-hydroxy-6-methyl-pyridin-2-ylmethyl)-2-(3-morpholin-4-yl-propylamino)-3H-benzoimidazol-5-ylmethyl]-amino}-3,5-dimethyl-phenyl)-propionitrile]	39.8 nM	114 °C	
Cc1ccc(I)c(NCc2ccc3nc(NCCCN4CCOCC4)n(Cc4nc(C)ccc4O)c3c2)c1 [Compound 50]	50.1 nM	225 °C	
Cc1cc(C)cc(N(CCO)Cc2ccc3nc(NCCCN4CCOCC4)n(Cc4nc(C)ccc4O)c3c2)c1 [Compound 58, 2-[6-{[(3,5-dimethyl-phenyl)-(2-hydroxy-ethyl)-amino]-methyl}-2-(3-morpholin-4-yl-propylamino)-benzimidazol-1-ylmethyl]-6-methyl-pyridin-3-ol]	0.398 nM	180 °C	
Cc1cc(C)cc(N(CCCC(N)=O)Cc2ccc3nc(NCCCN4CCOCC4)n(Cc4nc(C)ccc4O)c3c2)c1 [Compound 59, 2-[6-{[(3,5-dimethyl-phenyl)-(3-aminocarbonyl-propyl)-amino]-methyl}-2-(3-morpholin-4-yl-propylamino)-benzimidazol-1-ylmethyl]-6-methyl-pyridin-3-ol]	0.251 nM	170 °C	
Cc1cc(C)cc(N(CCCC(=O)O)Cc2ccc3nc(NCCCN4CCOCC4)n(Cc4nc(C)ccc4O)c3c2)c1 [Compound 62, 4-{(3,5-dimethyl-phenyl)-[3-(3-hydroxy-6-methyl-pyridin-2-ylmethyl)-2-(3-morpholin-4-yl-propylamino)-3H-benzoimidazol-5-ylmethyl]-amino}-butyric acid]	0.398 nM	121 °C	
Cc1cc(C)cc(N(CCN)Cc2ccc3nc(NCCCN4CCOCC4)n(Cc4nc(C)ccc4O)c3c2)c1 [Compound 66, 2-[6-{[(2-amino-ethyl)-(3,5-dimethyl-phenyl)-amino]-methyl}-2-(3-morpholin-4-yl-propylamino)-benzoimidazol-1-ylmethyl]-6-methyl-pyridin-3-ol]	1.26 nM	196 °C	
CCOC(=O)CCCN(Cc1ccc2nc(NCCCN3CCOCC3)n(Cc3nc(C)ccc3O)c2c1)c1cc(C)cc(C)c1 [Compound 71, 4-{(3,5-dimethyl-phenyl)-[3-(3-hydroxy-6-methyl-pyridin-2-ylmethyl)-2-(3-morpholin-4-yl-propylamino)-3H-benzoimidazol-5-ylmethyl]-amino}-butyric acid ethyl ester]	2.51 nM	130 °C	
Cc1ccc(O)c(Cn2c(NCCCN3CCOCC3)nc3ccc(Cc4c(C)cc(NCCO)cc4C)cc32)n1 [Compound 143, 2-[6-[4-(2-hydroxy-ethylamino)-2,6-dimethylbenzyl]-2-(3-morpholin-4-yl-propylamino)-benzoimidazol-1-ylmethyl]-6-methyl-pyridin-3-ol]	10 nM	162 °C	
CCn1ncc(Cc2ccc3nc(NCCCN4CCOCC4)n(Cc4nc(C)ccc4O)c3c2)c1NCCO [Compound 152]	7.94 nM	168 °C	
Cc1ccc2c(c1)N(Cc1ccc3nc(NCCCN4CCOCC4)n(Cc4nc(C)ccc4O)c3c1)CC2 [Compound 153]	50.1 nM	212 °C	
Cc1cc(C)c2nc(NCCCN3CCOCC3)n(Cc3nc(C)ccc3O)c2c1 [Compound 154, 2-[4,6-dimethyl-2-(3-morpholin-4-yl-propylamino)-benzoimidazol-1-yl-methyl]-6-methyl-pyridin-3-ol]	126 nM	228 °C	
Cc1cc(C)c2c(c1)nc(NCCCN1CCOCC1)n2Cc1nc(C)ccc1O [Compound 156, 2-[5,7-dimethyl-2-(3-morpholin-4-yl-propylamino)-benzoimidazol-1-ylmethyl]-6-methyl-pyridin-3-ol]	12600 nM	234 °C	
Cc1cccc(NC(=O)c2ccc3c(c2)nc(NCCCN2CCOCC2)n3Cc2nc(C)ccc2O)c1 [Compound 158]	> 100000 nM	170 °C	
Cc1cccc(NC(=O)c2ccc3nc(NCCCN4CCOCC4)n(Cc4nc(C)ccc4O)c3c2)c1 [Compound 159]	20000 nM	168 °C	
Cc1cc(C)cc(NC(=O)c2ccc3nc(NCCCN4CCOCC4)n(Cc4nc(C)ccc4O)c3c2)c1 [Compound 160]	> 10000 nM	172 °C	
Cc1cc(C)c2nc(N(CC(C)N3CCOCC3)C3CCNCC3)n(Cc3nc(C)ccc3O)c2c1 (stereo not shown) [Compound 161, 2-[4,6-dimethyl-2-(2-morpholin-4-ylpropyl-piperidin-4-ylamino)-benzoimidazol-1-ylmethyl]-6-methyl-pyridin-3-ol]	2.51 nM	223 °C	
Cc1cc(C)cc(NCc2ccc3nc(NC4CCNC(CCN5CCOCC5)C4)n(Cc4nc(C)ccc4O)c3c2)c1 (stereo not shown) [Compound 163, 2-{6-[(3,5-dimethyl-phenylamino)-methyl]-2-[2-(2-morpholin-4-yl-ethyl)-piperidin-4-ylamino]-benzoimidazol-1-ylmethyl}-6-methyl-pyridin-3-ol]	12.6 nM	150 °C	
Cc1ccc(O)c(Cn2c(NC3CCNC(CCN4CCOCC4)C3)nc3ccc(CCc4ccccc4)cc32)n1 (stereo not shown) [Compound 165, 6-methyl-2-{2-[2-(2-morpholin-4-yl-ethyl)-piperidin-4-ylamino]-6-phenethyl-benzoimidazol-1-ylmethyl}-pyridin-3-ol]	126 nM	159 °C	
Cc1ccc(O)c(Cn2c(NC3CCNC(CCN4CCOCC4)C3)nc3ccc(C=Cc4ccccc4)cc32)n1 (stereo not shown) [Compound 169, 6-methyl-2-{2-[2-(2-morpholin-4-yl-ethyl)-piperidin-4-ylamino]-6-styryl-benzoimidazol-1-ylmethyl}-pyridin-3-ol]	631 nM	224 °C	
Cc1cc(C)c2nc(N(CCN3CCOCC3)C3CCNCC3)n(Cc3nc(C)ccc3O)c2c1 [Compound 170, 2-[4,6-dimethyl-2-(2-morpholin-4-ylethyl-piperidin-4-ylamino)-benzoimidazol-1-ylmethyl]-6-methyl-pyridin-3-ol]	794 nM	237 °C	
Cc1cc(C)cc(NCc2ccc3nc(NCC(O)CN4CCOCC4)n(Cc4nc(C)ccc4O)c3c2)c1 (stereo not shown) [Compound 171, 2-[6-[(3,5-dimethyl-phenylamino)-methyl]-2-(2-hydroxy-3-morpholin-4-yl-propyl-amino)-benzoimidazol-1-ylmethyl]-6-methyl-pyridin-3-ol]	2.51 nM	198 °C	
Cc1cc(C)cc(NCc2ccc3nc(NCCCN4CC(C)OC(C)C4)n(Cc4nc(C)ccc4O)c3c2)c1 (stereo not shown) [Compound 172, 2-{2-[3-(2,6-dimethyl-morpholin-4-yl)-propylamino]-6-[(3,5-dimethyl-phenylamino)-methyl]-benzoimidazol-1-ylmethyl}-6-methyl-pyridin-3-ol]	15.8 nM	192 °C	
Cc1cc(C)c2nc(NCCCN3CCOC(CC(N)=O)C3)n(Cc3nc(C)ccc3O)c2c1 (stereo not shown) [Compound 191, 2-(4-{3-[1-(3-Hydroxy-6-methyl-pyridin-2-ylmethyl)-4,6-dimethyl-1H-benzoimidazol-2-ylamino]-propyl}-morpholin-2-yl)-acetamide]	158 nM	148 °C	
Cc1ccc(CCO)c(NCc2ccc3nc(NCCCN4CCOCC4)n(Cc4ncccc4O)c3c2)c1 [Compound 192, 2-[6-{[2-(2-Hydroxy-ethyl)-5-methyl-phenylamino]-methyl}-2-(3-morpholin-4-yl-propylamino)-benzoimidazol-1-ylmethyl]-pyridin-3-ol]		192 °C	0.501 nM
Cc1ccc(CCO)c(NCc2ccc3nc(NCCCN4CCOCC4)n(C4CCCc5nc(C)c(C)nc54)c3c2)c1 (stereo not shown) [Compound 193, 2-(2-{[3-(2,3-Dimethyl-5,6,7,8-tetrahydroquinoxalin-5-yl)-2-(3-morpholin-4-yl-propylamino)-3H-benzoimidazol-5-ylmethyl]-amino}-4-methyl-phenyl)-ethanol]		162 °C	0.501 nM
Cc1ccc(CCCO)c(NCc2ccc3nc(NCCCN4CCOCC4)n(Cc4cc(Br)ccc4O)c3c2)c1 [Compound 201, 4-Bromo-2-[6-{[2-(3-hydroxy-propyl)-5-methyl-phenylamino]-methyl}-2-(3-morpholin-4-yl-propylamino)-benzoimidazol-1-ylmethyl]-phenol]		134 °C	0.501 nM
Cc1cc(C)cc(N(CCCC(N)=O)Cc2ccc3nc(NCCCN4CCOCC4)n(C4CCCc5nc(C)c(C)nc54)c3c2)c1 (stereo not shown) [Compound 213, 4-{(3,5-Dimethyl-phenyl)-[3-(2,3-dimethyl-5,6,7,8-tetrahydro-quinoxalin-5-yl)-2-(3-morpholin-4-yl-propylamino)-3H-benzoimidazol-5-ylmethyl]-amino}-butyramide]		109 °C	1.58 nM
Cc1ccc(CCCO)c(NCc2ccc3nc(NCCCN4CCOCC4)n(Cc4cccc5c4ncn5C)c3c2)c1 [Compound 218, 3-(4-Methyl-2-{[3-(1-methyl-1H-benzoimidazol-4-ylmethyl)-2-(3-morpholin-4-yl-propylamino)-3H-benzoimidazol-5-ylmethyl]-amino}-phenyl)-propan-1-ol]		198 °C	2.51 nM

Reference: patent publication US7449463B2, “Morpholinyl containing benzimidazoles as inhibitors of respiratory syncytial virus replication” (Tibotec Pharmaceuticals Ltd., priority 2003, dated 2008)
